Results from ChEMBL document CHEMBL4007467, “Effects of 6-paradol, an unsaturated ketone from gingers, on cytochrome P450-mediated drug metabolism” (Bioorg Med Chem Lett, 2017).
pIC50: −log10 of the molar value.

Legend:
Type in all cases: ADME
[1] = biological target: T1, CYP2C19 (Homo sapiens, UniProt P33261); assay: Inhibition of CYP2C19 in human liver microsomes assessed as enzyme-mediated metabolite formation at 1 uM using (S)-mephenytoin as substrate incubated for 5 mins followed by NADPH addition measured after 30 mins by LC-MS/MS analysis relative to control; set-up: scale not given: the % may be the effect or the level left; conditions: probe (S)-mephenytoin, read-out: Activity
[2] = biological target: T2, CYP3A4 (Homo sapiens, UniProt P08684); assay: Inhibition of CYP3A4 in human liver microsomes assessed as enzyme-mediated metabolite formation at 0.3 uM using midazolam as substrate preincubated for 20 mins followed by substrate addition measured after 30 mins in presence of NADPH by LC-MS/MS analysis relative to control; set-up: scale not given: the % may be the effect or the level left; conditions: probe midazolam, read-out: Activity
[3] = biological target: T3, Cytochrome P450 1A2 (Homo sapiens, UniProt P05177); assay: Inhibition of CYP1A2 in human liver microsomes assessed as enzyme-mediated metabolite formation using phenacetin as substrate incubated for 5 mins followed by NADPH addition measured after 30 mins by LC-MS/MS analysis
T3 sequence (P05177 whole entry): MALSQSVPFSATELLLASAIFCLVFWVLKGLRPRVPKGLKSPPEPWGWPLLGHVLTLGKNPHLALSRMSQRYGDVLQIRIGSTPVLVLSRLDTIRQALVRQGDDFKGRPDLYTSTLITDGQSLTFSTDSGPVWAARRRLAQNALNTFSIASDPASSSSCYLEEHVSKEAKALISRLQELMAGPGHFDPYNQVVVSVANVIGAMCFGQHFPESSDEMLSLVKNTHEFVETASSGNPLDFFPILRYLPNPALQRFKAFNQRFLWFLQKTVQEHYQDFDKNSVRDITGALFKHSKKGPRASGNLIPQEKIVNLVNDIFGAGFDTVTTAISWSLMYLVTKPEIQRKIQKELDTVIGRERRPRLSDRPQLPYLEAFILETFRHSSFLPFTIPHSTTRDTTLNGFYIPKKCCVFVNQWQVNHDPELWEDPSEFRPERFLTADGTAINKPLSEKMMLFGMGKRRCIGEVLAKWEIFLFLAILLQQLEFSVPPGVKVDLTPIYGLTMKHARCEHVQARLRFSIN

[4] = biological target: T1, CYP2C19; assay: Inhibition of CYP2C19 in human liver microsomes assessed as enzyme-mediated metabolite formation at 3 uM using (S)-mephenytoin as substrate preincubated for 20 mins followed by substrate addition measured after 30 mins in presence of NADPH by LC-MS/MS analysis relative to control; set-up: scale not given: the % may be the effect or the level left; conditions: probe (S)-mephenytoin, read-out: Activity
[5] = biological target: T2, CYP3A4; assay: Inhibition of CYP3A4 in human liver microsomes assessed as enzyme-mediated metabolite formation at 1 uM using testosterone as substrate incubated for 5 mins followed by NADPH addition measured after 30 mins by LC-MS/MS analysis relative to control; set-up: scale not given: the % may be the effect or the level left; conditions: probe testosterone, read-out: Activity
[6] = biological target: T4, CYP2A6 (Homo sapiens, UniProt P11509); assay: Inhibition of CYP2A6 in human liver microsomes assessed as enzyme-mediated metabolite formation at 10 uM using coumarin as substrate preincubated for 20 mins followed by substrate addition measured after 30 mins in presence of NADPH by LC-MS/MS analysis relative to control; set-up: scale not given: the % may be the effect or the level left; conditions: probe coumarin, read-out: Activity
T4 sequence (P11509 whole entry): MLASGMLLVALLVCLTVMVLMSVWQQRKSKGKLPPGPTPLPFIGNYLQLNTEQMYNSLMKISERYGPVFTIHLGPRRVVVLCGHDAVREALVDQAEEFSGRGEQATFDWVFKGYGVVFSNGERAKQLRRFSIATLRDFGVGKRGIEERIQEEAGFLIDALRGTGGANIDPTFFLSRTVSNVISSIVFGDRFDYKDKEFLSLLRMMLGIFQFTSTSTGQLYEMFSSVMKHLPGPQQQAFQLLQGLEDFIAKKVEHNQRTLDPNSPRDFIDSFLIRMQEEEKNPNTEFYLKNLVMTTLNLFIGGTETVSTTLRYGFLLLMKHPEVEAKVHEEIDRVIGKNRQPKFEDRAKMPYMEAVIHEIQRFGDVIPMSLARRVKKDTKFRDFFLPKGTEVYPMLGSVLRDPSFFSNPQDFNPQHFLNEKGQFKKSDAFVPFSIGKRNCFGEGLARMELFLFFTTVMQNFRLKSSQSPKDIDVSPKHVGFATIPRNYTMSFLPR

[7] = biological target: T4, CYP2A6; assay: Inhibition of CYP2A6 in human liver microsomes assessed as enzyme-mediated metabolite formation at 1 uM using coumarin as substrate preincubated for 20 mins followed by substrate addition measured after 30 mins in presence of NADPH by LC-MS/MS analysis relative to control; set-up: scale not given: the % may be the effect or the level left; conditions: probe coumarin, read-out: Activity
[8] = biological target: T4, CYP2A6; assay: Inhibition of CYP2A6 in human liver microsomes assessed as enzyme-mediated metabolite formation at 30 uM using coumarin as substrate incubated for 5 mins followed by NADPH addition measured after 30 mins by LC-MS/MS analysis relative to control; set-up: scale not given: the % may be the effect or the level left; conditions: probe coumarin, read-out: Activity
[9] = biological target: T5, CYP1A2 (Homo sapiens, UniProt P05177); assay: Inhibition of CYP1A2 in human liver microsomes assessed as enzyme-mediated metabolite formation at 10 uM using phenacetin as substrate incubated for 5 mins followed by NADPH addition measured after 30 mins by LC-MS/MS analysis relative to control; set-up: scale not given: the % may be the effect or the level left; conditions: probe phenacetin, read-out: Activity
T5 sequence (P05177 whole entry): T3 sequence (P05177 whole entry)

[10] = biological target: T5, CYP1A2; assay: Inhibition of CYP1A2 in human liver microsomes assessed as enzyme-mediated metabolite formation at 0.1 uM using phenacetin as substrate incubated for 5 mins followed by NADPH addition measured after 30 mins by LC-MS/MS analysis relative to control; set-up: scale not given: the % may be the effect or the level left; conditions: probe phenacetin, read-out: Activity
[11] = biological target: T1, CYP2C19; assay: Inhibition of CYP2C19 in human liver microsomes assessed as enzyme-mediated metabolite formation at 0.3 uM using (S)-mephenytoin as substrate preincubated for 20 mins followed by substrate addition measured after 30 mins in presence of NADPH by LC-MS/MS analysis relative to control; set-up: scale not given: the % may be the effect or the level left; conditions: probe (S)-mephenytoin, read-out: Activity
[12] = biological target: T2, CYP3A4; assay: Inhibition of CYP3A4 in human liver microsomes assessed as enzyme-mediated metabolite formation at 10 uM using midazolam as substrate preincubated for 20 mins followed by substrate addition measured after 30 mins in presence of NADPH by LC-MS/MS analysis relative to control; set-up: scale not given: the % may be the effect or the level left; conditions: probe midazolam, read-out: Activity
[13] = biological target: T1, CYP2C19; assay: Inhibition of CYP2C19 in human liver microsomes assessed as enzyme-mediated metabolite formation at 3 uM using (S)-mephenytoin as substrate incubated for 5 mins followed by NADPH addition measured after 30 mins by LC-MS/MS analysis relative to control; set-up: scale not given: the % may be the effect or the level left; conditions: probe (S)-mephenytoin, read-out: Activity
[14] = biological target: T2, CYP3A4; assay: Inhibition of CYP3A4 in human liver microsomes assessed as enzyme-mediated metabolite formation at 3 uM using midazolam as substrate preincubated for 20 mins followed by substrate addition measured after 30 mins in presence of NADPH by LC-MS/MS analysis relative to control; set-up: scale not given: the % may be the effect or the level left; conditions: probe midazolam, read-out: Activity
[15] = biological target: T1, CYP2C19; assay: Inhibition of CYP2C19 in human liver microsomes assessed as enzyme-mediated metabolite formation at 0.3 uM using (S)-mephenytoin as substrate incubated for 5 mins followed by NADPH addition measured after 30 mins by LC-MS/MS analysis relative to control; set-up: scale not given: the % may be the effect or the level left; conditions: probe (S)-mephenytoin, read-out: Activity
[16] = biological target: Cytochrome P450 2D6 (Homo sapiens, UniProt P10635); assay: Inhibition of CYP2D6 in human liver microsomes using dextromethorphan as substrate preincubated for 20 mins followed by substrate addition measured after 30 mins in presence of NADPH by LC-MS/MS analysis
Cytochrome P450 2D6, sequence (P10635 whole entry): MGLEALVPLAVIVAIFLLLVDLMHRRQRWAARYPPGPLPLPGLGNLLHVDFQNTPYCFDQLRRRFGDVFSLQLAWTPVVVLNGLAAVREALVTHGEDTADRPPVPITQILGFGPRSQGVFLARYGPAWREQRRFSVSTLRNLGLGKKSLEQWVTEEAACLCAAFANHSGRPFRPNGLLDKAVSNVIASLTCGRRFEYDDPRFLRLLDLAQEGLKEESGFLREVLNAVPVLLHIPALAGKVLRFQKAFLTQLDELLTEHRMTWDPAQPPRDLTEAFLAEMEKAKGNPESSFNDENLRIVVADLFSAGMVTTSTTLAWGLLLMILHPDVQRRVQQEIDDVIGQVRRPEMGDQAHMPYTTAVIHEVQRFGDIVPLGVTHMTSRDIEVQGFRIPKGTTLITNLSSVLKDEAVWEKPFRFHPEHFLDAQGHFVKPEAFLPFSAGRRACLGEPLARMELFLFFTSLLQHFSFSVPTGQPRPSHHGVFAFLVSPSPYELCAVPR

T1 sequence (P33261 whole entry): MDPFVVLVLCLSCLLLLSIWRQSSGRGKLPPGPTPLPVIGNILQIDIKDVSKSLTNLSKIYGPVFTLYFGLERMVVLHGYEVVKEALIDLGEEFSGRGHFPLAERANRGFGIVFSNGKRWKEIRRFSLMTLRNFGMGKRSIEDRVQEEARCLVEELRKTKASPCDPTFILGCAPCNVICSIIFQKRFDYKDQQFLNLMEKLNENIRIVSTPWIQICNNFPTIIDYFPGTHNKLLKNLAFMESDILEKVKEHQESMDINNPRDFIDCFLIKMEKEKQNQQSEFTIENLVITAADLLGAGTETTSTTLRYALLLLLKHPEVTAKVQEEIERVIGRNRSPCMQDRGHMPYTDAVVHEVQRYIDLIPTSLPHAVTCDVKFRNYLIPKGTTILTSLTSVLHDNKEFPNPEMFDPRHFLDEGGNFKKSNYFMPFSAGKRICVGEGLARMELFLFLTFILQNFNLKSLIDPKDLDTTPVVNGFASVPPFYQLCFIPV
T2 sequence (P08684 whole entry): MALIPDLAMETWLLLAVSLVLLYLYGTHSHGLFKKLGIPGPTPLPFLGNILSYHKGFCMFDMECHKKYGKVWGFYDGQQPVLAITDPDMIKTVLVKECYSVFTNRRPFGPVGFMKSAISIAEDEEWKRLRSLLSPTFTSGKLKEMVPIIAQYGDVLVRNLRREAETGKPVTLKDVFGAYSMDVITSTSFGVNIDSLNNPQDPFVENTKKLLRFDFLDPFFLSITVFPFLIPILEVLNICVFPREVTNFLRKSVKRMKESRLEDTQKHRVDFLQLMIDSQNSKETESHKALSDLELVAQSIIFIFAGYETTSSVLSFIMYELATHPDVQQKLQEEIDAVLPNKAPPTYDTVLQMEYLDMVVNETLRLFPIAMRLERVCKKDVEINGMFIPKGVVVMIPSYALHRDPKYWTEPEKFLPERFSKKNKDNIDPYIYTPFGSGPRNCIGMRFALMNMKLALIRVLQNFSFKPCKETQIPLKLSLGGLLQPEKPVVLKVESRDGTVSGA

- activity at 0.5 h, 1 µM [1]: 88.4%
- activity at 0.5 h, 0.3 µM [2]: 88.9%
- pIC50 [3]: 5.15
- activity at 0.5 h, 3 µM [4]: 67.6%
- activity at 0.5 h, 1 µM [5]: 65.6%
- activity at 0.5 h, 10 µM [6]: 96.1%
- activity at 0.5 h, 1 µM [7]: 102%
- activity at 0.5 h, 30 µM [8]: 77.4%
- activity at 0.5 h, 10 µM [9]: 49.7%
- activity at 0.5 h, 0.1 µM [10]: 100%
- activity at 0.5 h, 0.3 µM [11]: 81.5%
- activity at 0.5 h, 10 µM [12]: 110%
- activity at 0.5 h, 3 µM [13]: 78.6%
- activity at 0.5 h, 3 µM [14]: 103%
- activity at 0.5 h, 0.3 µM [15]: 85.8%
- pIC50 [16]: < 4.52
Structure (SMILES): CCCCCCCC(=O)CCc1ccc(O)c(OC)c1
